Reference: paper PMC11923649, “Novel C-2 Aromatic Heterocycle-Substituted Triterpenoids Inhibit Hedgehog Signaling in GLI1 Overexpression Cancer Cells” (ACS Omega, 2025)

Columns and labels:
[1] = test system: U-87 MG-Gli-FLuc cells; assay: MTS viability assay run in parallel with U-87 MG-Gli-FLuc reporter assay; type: cell-based, human; details: up to a dose of 6.25 μmol/L, 24 h
Experimental: (§1) A possible direct inhibition of the reporter (Fluc) and luminescence itself, which could lead to false positive results, was also ruled out in a cellular as well as a noncellular model (data not shown).
(§2) Figure 1 Effect of compounds 11a, 11b, and positive control GANT-61 on Gli1 activation and cell viability measured using the U-87 MG-Gli-FLuc reporter assay. Data are expressed as percentages of control (100%) and represent the mean of three independent experiments with the standard deviation. To distinguish specific inhibition of Gli activation from a nonspecific cellular response, an MTS assay was performed simultaneously under the same conditions in 96-well transparent plates. Statistical analysis of Gli1 activity was performed using one-sample Student’s t-test (mu = 100): *, p < 0.05; **, p < 0.01. The same analysis was used to assess cytotoxicity by MTS assay: #, p < 0.05; ##, p < 0.01.
(§3) The U-87 MG-Gli-FLuc reporter cell line was developed from the human glioblastoma line U-87 MG obtained from ATCC and cultured in EMEM medium supplemented with 10% FBS, 1 mmol/L sodium pyruvate, and a 1 mmol/L nonessential amino acid mixture. […] Panels were placed on a shaker to achieve complete cell lysis, and luminescence was measured after 3 min using an EnVision plate reader.

[2] = test system: HCT 116; assay: MTS cytotoxicity assay, 72 h, HCT 116; type: cell-based; details: Homo sapiens, HCT-116, 72 h
In short: (§4)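 Cells were exposed to compounds for 72 h at 50–0.0975 μmol/L (2-fold dilutions), then MTS/phenazine methosulfate was added for 1–4 h. Absorbance read at 490 nm; IC50 derived from concentration-response.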

[3] = test system: A549 (lung adenocarcinoma); assay: MTS cytotoxicity assay, 72 h, A549; type: cell-based; details: Homo sapiens, A549, 72 h
In short: as §4

[4] = test system: Gli-mediated transcription (U-87 MG-Gli-FLuc reporter); assay: U-87 MG-Gli-FLuc reporter assay; type: cell-based, human; details: 24 h, 12.5–0.78 μmol/L; compared with GANT-61 at equimolar concentration
Experimental: as §1, §2, §3

[5] = test system: K562-TAX; assay: MTS cytotoxicity assay, 72 h, K562-TAX; type: cell-based
[6] = test system: MDR1; assay: MDCK-MDR1 permeability assay; type: in vitro ADME; details: dog, MDCK-MDR1; B–A / A–B
Description: (§5) The Parallel Artificial Membrane Permeability Assay (PAMPA) has emerged as a primary screen for determining passive transcellular permeability. […] The Caco-2 and MDCK-MDR1 permeability assays are established models of intestinal[37] and blood-brain barriers, respectively.[38]

[7] = MDCK-MDR1 permeability assay; type: in vitro ADME; details: dog, MDCK-MDR1; for Papp A→B: cm/s, read-out: MDCK-MDR1 Papp (×10^−6)
Description: as §5

[8] = test system: MDCK-MDR1 monolayer; assay: MDCK-MDR1 permeability assay; type: in vitro ADME
Description: as §5

[9] = Plasma stability; type: in vitro ADME; details: human plasma

SMILES | Inhibition of proliferation or cell death induction (MTS) under reporter conditions [1] | IC50 ([2]; Table 1) [µM] | IC50 ([2]; full Table S1) [µM] | IC50 ([3]; Table 1) [µM] | IC50 ([3]; full Table S1) [µM] | Gli transcriptional activity [4] | IC50 ([5]; Table 1) [µM] | IC50 ([5]; full Table S1) [µM] | efflux ratio [6] | recovery [7] [%] | Papp A→B [7] [×10⁻⁶ cm/s] | MDCK-MDR1 Active efflux [8] | Plasma stability % Compound remaining 15 min [9] [%] | Plasma stability % Compound remaining 30 min [9] [%] | Plasma stability % Compound remaining 60 min [9] [%]
C=C(C)[C@@H]1CC[C@]2(C(=O)O)CC[C@]3(C)C(CCC4[C@@]5(C)C=C(c6ccco6)C(=O)C(C)(C)C5CC[C@]43C)C12 (stereo partly drawn) [Compound 11a, 2-(Furan-2-yl)-3-oxolupa-1,20(29)-dien-28-oic acid] | not accompanied by inhibition of proliferation or cell death induction | 11 | 11.4 | 12 | 12.1 | inhibited Gli transcriptional activity in a dose-response manner | 14 | 13.7 | 1.53 | 90.4 | 9.15 | No (less than or very close to the limit of active and passive efflux (≤2)) | 103 | 100 | 95
C=C(C)[C@@H]1CC[C@]2(C(=O)O)CC[C@]3(C)C(CCC4[C@@]5(C)C=C(c6ccoc6)C(=O)C(C)(C)C5CC[C@]43C)C12 (stereo partly drawn) [Compound 11b, 2-(Furan-3-yl)-3-oxolupa-1,20(29)-dien-28-oic acid] | not accompanied by inhibition of proliferation or cell death induction | 20 | 19.9 | 12 | 12.1 | inhibited Gli transcriptional activity in a dose-response manner | 16 | 15.8 | 2.46 | 94.7 | 1.85 | Yes | 103 | 104 | 103
